O=C(O)c1ccc(C(=O)O)o1
Details | solubility (mole fraction)
in acetic acid, 303.55 K | 0.000242
in acetic acid, 313.25 K | 0.000319
in acetic acid, 322.95 K | 0.000471
in acetic acid, 332.75 K | 0.000656
in acetic acid, 342.45 K | 0.000874
in acetic acid, 352.25 K | 0.00111
in ethanol, 299.35 K | 0.00298
in ethanol, 305.35 K | 0.00337
in ethanol, 311.25 K | 0.004
in ethanol, 319.25 K | 0.00478
in ethanol, 323.15 K | 0.00526
in ethanol, 328.95 K | 0.0062
in ethanol, 334.75 K | 0.0072
in ethanol, 340.55 K | 0.00814
in ethanol, 346.35 K | 0.0093
in methanol, 297.35 K | 0.00371
in methanol, 303.35 K | 0.00408
in methanol, 309.35 K | 0.00484
in methanol, 315.25 K | 0.00563
in methanol, 321.15 K | 0.00661
in methanol, 326.85 K | 0.00758
in methanol, 332.65 K | 0.00884
in water, 303.55 K | 0.000141
in water, 313.25 K | 0.000195
in water, 322.95 K | 0.000302
in water, 332.75 K | 0.00047
in water, 342.45 K | 0.000672
in water, 352.25 K | 0.000873

Reference: BigSolDB 2.1
